In PubChem BioAssay (NCI):
“And” between values parts separate entries of the source, which are not always exact repeats. Equal entries are not always repeated.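 Grown in 96-well plates, cells were treated for 48 hours with each compound at five concentrations. Insufficient inhibition: endpoint recorded as highest concentration tested. The concentration for 50% growth inhibition is given as GI50. At the TGI there is no net growth.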

Tests used:
Assay in all cases: inhibition of tumour cell growth, NCI panel, 48 h
OVCAR-8 ovarian = system: OVCAR-8 ovarian
COLO 205 colon = system: COLO 205 colon
SW-620 colon = system: SW-620 colon
OVCAR-4 ovarian = system: OVCAR-4 ovarian
SF-295 CNS = system: SF-295 CNS
SR leukemia = system: SR leukemia
SK-MEL-28 melanoma = system: SK-MEL-28 melanoma
SK-MEL-5 melanoma = system: SK-MEL-5 melanoma
HCT-116 colon = system: HCT-116 colon
HOP-62 NSCLC = system: HOP-62 NSCLC
RXF 393 renal = system: RXF 393 renal
HOP-92 NSCLC = system: HOP-92 NSCLC

SMILES	TGI (OVCAR-8 ovarian) [µM]	TGI (COLO 205 colon) [µM]	TGI (SW-620 colon) [µM]	TGI (OVCAR-4 ovarian) [µM]	TGI (SF-295 CNS) [µM]	TGI (SR leukemia) [µM]	TGI (SK-MEL-28 melanoma) [µM]	TGI (SK-MEL-5 melanoma) [µM]	TGI (HCT-116 colon) [µM]	TGI (HOP-62 NSCLC) [µM]	TGI (RXF 393 renal)	TGI (HOP-92 NSCLC)	GI50 (OVCAR-8 ovarian) [nM]	GI50 (SW-620 colon) [nM]	GI50 (HOP-92 NSCLC) [nM]	GI50 (OVCAR-4 ovarian) [nM]	GI50 (SF-295 CNS) [nM]	GI50 (SK-MEL-5 melanoma) [nM]	GI50 (RXF 393 renal) [nM]
Cc1ccc(-c2cc(-c3ccco3)c(C#N)c(=O)n2C2OC(CO)C(O)C(O)C2O)cc1 (centres undefined)	> 100	> 100	> 100	> 100	> 100	> 100	> 100	45.7	> 100	91.4	> 100 µM								
CCOC(=O)C(OP(=O)(OCC)OCC)C(F)(F)F (centres undefined)						> 100	> 100		> 100	> 100	> 100 µM								
Cn1c(=O)c(Cl)c(N=[N+]=[N-])c2ccccc21	> 100	> 100	> 100	> 100	> 100	> 100	> 100	> 100	> 100	> 100	> 100 µM	> 100 µM							
O=[N+]([O-])C(=C/c1cccs1)/C(=C\c1cccs1)[N+](=O)[O-]	8.06	2.93	21.2	7.41	4.92	0.987	2.32	2.94	2.49	5.39	0.486 µM	3.28 µM							
O=C1c2ccccc2C(=O)N1CC(CN1C(=O)c2ccccc2C1=O)(C(=O)OCc1ccccc1)C(=O)OCc1ccccc1	> 100	> 100			> 100	> 100	> 100	> 100	> 100	> 100	> 100 µM	> 100 µM							
C=CCCCCCCCCC(=O)O	283	197	260	341	200		322	183	225	168	207 µM	199 µM							
COc1cccc2c1C(=O)c1c(O)c3c(c(O)c1C2=O)C[C@@](O)(C(=O)CO)CC3OC1CC(NCCCC(OC(C)=O)OC(C)=O)C(O)C(C)O1 (some centres undefined)	0.0119		> 1		0.000645	0.000288	0.00787	0.00028		0.00461	0.00328 µM and 0.000813 µM	0.0065 µM and 0.000862 µM	< 0.1	< 0.1	0.24	< 0.1	< 0.1	< 0.1	0.198
CCN1CCC(O)(c2ccc(O)cc2)C(C(=O)c2ccc(O)cc2)C1 (centres undefined)	> 100	37.9	12.3	68.8	> 100	43.4	31.7	22.7	54.9	> 100	30.7 µM	37.5 µM							
